Each structure is given as a SMILES string.

Consider 17 molecules from patent publication US20220324800A1 (priority 2021, published 2022).

The test has as its target 3CLpro (Severe acute respiratory syndrome coronavirus 2, UniProt P0DTD1). Nature of the test: biochemical. The arrangement: species or system SARS-CoV-2.
What is called IC50 is the concentration needed to halve the response being measured. Read a low IC50 as greater potency in that assay. The molecule `CC(C)C[C@H](NC(=O)OC(C)(C)C)C(=O)CN(C[C@@H]1CCNC1=O)C(=O)CCl` [Example 1, Tert-butyl ((S)-1-(2-chloro-N—(((S)-2-oxopyrrolidin-3-yl)methyl)acetamido)-5-methyl-2-oxohexan-3-yl)carbamate] yielded an IC50 of less than 2000 nM.

As for `COc1cccc2[nH]c(C(=O)N[C@@H](CC(C)C)C(=O)CN(C[C@@H]3CCNC3=O)C(=O)CCl)cc12` [Example 2, N—((S)-1-(2-Chloro-N—(((S)-2-oxopyrrolidin-3-yl)methyl)acetamido)-5-methyl-2-oxohexan-3-yl)-4-methoxy-1H-indole-2-carboxamide], the IC50 was less than 2000 nM.

The molecule `C=CC(=O)N(CC(=O)[C@H](CC(C)C)NC(=O)OC(C)(C)C)C[C@@H]1CCNC1=O` [Example 3, Tert-butyl ((S)-5-methyl-2-oxo-1-(N—(((S)-2-oxopyrrolidin-3-yl)methyl)acrylamido)hexan-3-yl)carbamate] yielded an IC50 greater than 20000 nM.

Regarding `C=CC(=O)N(CC(=O)[C@H](CC(C)C)NC(=O)c1cc2c(OC)cccc2[nH]1)C[C@@H]1CCNC1=O` [Example 4, 4-Methoxy-N—((S)-5-methyl-2-oxo-1-(N—(((S)-2-oxopyrrolidin-3-yl)methyl)acrylamido)hexan-3-yl)-1H-indole-2-carboxamide], the IC50 was greater than 20000 nM.

In turn, `C#CC(=O)N(CC(=O)[C@H](CC(C)C)NC(=O)c1cc2c(OC)cccc2[nH]1)C[C@@H]1CCNC1=O` [Example 6, 4-Methoxy-N—((S)-5-methyl-2-oxo-1-(N—(((S)-2-oxopyrrolidin-3-yl)methyl)propiolamido)hexan-3-yl)-1H-indole-2-carboxamide] came in with a 50% inhibitory concentration (IC50) of 2000 to 20000 nM.

Molecule `COc1cccc2[nH]c(C(=O)N[C@@H](CC(C)C)C(=O)CN(C[C@@H]3CCNC3=O)C(=O)CF)cc12` [Example 8, N—((S)-1-(2-Fluoro-N—(((S)-2-oxopyrrolidin-3-yl)methyl)acetamido)-5-methyl-2-oxohexan-3-yl)-4-methoxy-1H-indole-2-carboxamide] came in with an IC50 greater than 20000 nM.

`COc1cccc2[nH]c(C(=O)N[C@@H](CC(C)C)C(=O)CN(C[C@@H]3CCNC3=O)S(=O)(=O)CCl)cc12` [Example 10, N—((S)-1-((1-Chloro-N—(((S)-2-oxopyrrolidin-3-yl)methyl)methyl)sulfonamido)-5-methyl-2-oxohexan-3-yl)-4-methoxy-1H-indole-2-carboxamide] came in with an IC50 greater than 20000 nM.

Take `CC(C)C[C@H](NC(=O)c1cc(Cl)c(Cl)s1)C(=O)CN(C[C@@H]1CCNC1=O)C(=O)CCl` [Example 11, 4,5-Dichloro-N—((S)-1-(2-chloro-N—(((S)-2-oxopyrrolidin-3-yl)methyl)acetamido)-5-methyl-2-oxohexan-3-yl)thiophene-2-carboxamide]: the IC50 was less than 2000 nM.

The molecule `CC(C)C[C@H](NC(=O)c1cc2c(F)cccc2s1)C(=O)CN(C[C@@H]1CCNC1=O)C(=O)CCl` [Example 12, N—((S)-1-(2-Chloro-N—(((S)-2-oxopyrrolidin-3-yl)methyl)acetamido)-5-methyl-2-oxohexan-3-yl)-4-fluorobenzo[b]thiophene-2-carboxamide] came in with an IC50 of less than 2000 nM.

As to `CC(C)C[C@H](NC(=O)c1cccs1)C(=O)CN(C[C@@H]1CCNC1=O)C(=O)CCl` [Example 13, N—((S)-1-(2-Chloro-N—(((S)-2-oxopyrrolidin-3-yl)methyl)acetamido)-5-methyl-2-oxohexan-3-yl)thiophene-2-carboxamide], the IC50 is less than 2000 nM.

The molecule `CC(C)C[C@H](NC(=O)c1cc2ccccc2o1)C(=O)CN(C[C@@H]1CCNC1=O)C(=O)CCl` [Example 14, N—((S)-1-(2-Chloro-N—(((S)-2-oxopyrrolidin-3-yl)methyl)acetamido)-5-methyl-2-oxohexan-3-yl)benzofuran-2-carboxamide] returned an IC50 of less than 2000 nM.

Regarding `CC(C)C[C@H](NC(=O)c1cc2c(F)cccc2o1)C(=O)CN(C[C@@H]1CCNC1=O)C(=O)CCl` [Example 15, N—((S)-1-(2-Chloro-N—(((S)-2-oxopyrrolidin-3-yl)methyl)acetamido)-5-methyl-2-oxohexan-3-yl)-4-fluorobenzofuran-2-carboxamide], the IC50 was less than 2000 nM.

As to `CC(C)C[C@H](NC(=O)OC(C)(C)C)C(=O)CN(C[C@@H]1CCNC1=O)C(=O)SCc1ccccc1` [Example 16, Tert-butyl ((S)-1-(((benzylthio)carbonyl)(((S)-2-oxopyrrolidin-3-yl)methyl)amino)-5-methyl-2-oxohexan-3-yl)carbamate], the IC50 was greater than 20000 nM.

As to `CC(=O)OCC(=O)N(CC(=O)[C@H](CC(C)C)NC(=O)OC(C)(C)C)C[C@@H]1CCNC1=O` [Example 17, 2-(((S)-3-((Tert-butoxycarbonyl)amino)-5-methyl-2-oxohexyl)(((S)-2-oxopyrrolidin-3-yl)methyl)amino)-2-oxoethyl acetate], the IC50 was greater than 20000 nM.

As to `COc1cccc2[nH]c(C(=O)N[C@@H](CC(C)C)C(=O)CN(C[C@@H]3CCNC3=O)C(=O)SCc3ccccc3)cc12` [Example 18, S-Benzyl ((S)-3-(4-methoxy-1H-indole-2-carboxamido)-5-methyl-2-oxohexyl)(((S)-2-oxopyrrolidin-3-yl)methyl)carbamothioate], the IC50 was greater than 20000 nM.

`CC(C)C[C@H](NC(=O)OCc1ccccc1)C(=O)CN(C[C@@H]1CCNC1=O)C(=O)CCl` [Example 20, Benzyl ((S)-1-(2-chloro-N—(((S)-2-oxopyrrolidin-3-yl)methyl)acetamido)-5-methyl-2-oxohexan-3-yl)carbamate]: the IC50 was less than 2000 nM.

Molecule `CC(C)C[C@@H](NC(=O)OCc1ccccc1)C(=O)CN(C[C@@H]1CCNC1=O)C(=O)CCl` [Example 21, Benzyl ((R)-1-(2-chloro-N—(((S)-2-oxopyrrolidin-3-yl)methyl)acetamido)-5-methyl-2-oxohexan-3-yl)carbamate] displayed an IC50 of 2000 to 20000 nM.
